The values below come from ChEMBL document CHEMBL1201862, “PubChem BioAssay data set” (2004).

Test systems include UACC-257; UO-31; OVCAR-3; HCT-116; CAKI-1; IGROV-1; MCF7; A498; NCI/ADR-RES; SF-295; ACHN; MDA-MB-231; SN12C; COLO 205; Hs-578T; HOP-62; OVCAR-5; RXF 393; RPMI-8226.
What all share (assay): NCI-60 cell line screen, 48 h

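Tested at 5 concentrations; 48 h exposure; 96-well plates; endpoints linearly interpolated, else capped at highest concentration. GI50 marks 50% less growth.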 Activity calls are given as the source filed them. Rule as the data show it: active = GI50 up to about 1.1 µM and inactive = higher. Bounds are passed on as bounds.

In the case of `O=[N+]([O-])c1ccc(NN=C2CN3CCN(C2)c2ccccc23)c([N+](=O)[O-])c1`, the GI50 with UACC-257 was > 100 µM (inactive); in the test on UO-31, > 100 µM (inactive); in the test with OVCAR-3 it was > 100 µM (inactive); in the test with HCT-116, > 100 µM (inactive); with CAKI-1, > 100 µM (inactive); with IGROV-1, 97.3 µM (inactive). Further, the GI50 in the test on MCF7, in the test on A498, in the test on NCI/ADR-RES, with SF-295, with ACHN and in the test with MDA-MB-231 was > 100 µM (inactive) each time. For the same compound, the GI50 in the test on SN12C, in the test on COLO 205, with Hs-578T, with HOP-62 and with OVCAR-5 was > 100 µM (inactive) throughout.

With `OCC1C(O)C(O)[C@@H]2SCCN12` (stereo partly drawn), the GI50 in the test with UACC-257, in the test on UO-31, in the test on OVCAR-3, with HCT-116, in the test with CAKI-1 and in the test with IGROV-1 was > 100 µM (inactive) in each case. The GI50 in the test with RXF 393, with A498, in the test with NCI/ADR-RES, with SF-295, with RPMI-8226 and in the test on ACHN was > 100 µM (inactive) throughout. For the same compound, the GI50 in the test on MDA-MB-231, in the test with COLO 205, in the test with Hs-578T, with HOP-62 and in the test with OVCAR-5 was > 100 µM (inactive) in each case.

In the case of `CN(/N=C/C=N/N(C)C1=NCCCN1)C1=NCCCN1`, the GI50 in the test with UACC-257, in the test on UO-31, in the test with OVCAR-3, in the test with HCT-116, in the test on CAKI-1 and in the test with IGROV-1 was > 100 µM (inactive) each time. Further, the GI50 with MCF7, in the test with RXF 393, in the test with NCI/ADR-RES, in the test on SF-295, with ACHN and in the test with MDA-MB-231 was > 100 µM (inactive) each time. Moreover, the GI50 with SN12C, with COLO 205, in the test on Hs-578T, in the test on HOP-62 and in the test on OVCAR-5 was > 100 µM (inactive) each time.

Take `COc1ccc2c(c1)-c1c(c3ccccc3n1CCN1CCOCC1)CC2`: the GI50 in the test with UACC-257 was 36.7 µM (inactive); in the test with UO-31 it was 22.6 µM (inactive); with OVCAR-3 it was 18.2 µM (inactive); in the test with HCT-116 it was 22.4 µM (inactive); in the test on CAKI-1, 17.5 µM (inactive); with IGROV-1, 5.47 µM (inactive). Besides, the GI50 is 32.3 µM (inactive) in the test on MCF7; 11.7 µM (inactive) in the test with NCI/ADR-RES; 16 µM (inactive) with SF-295; 19.4 µM (inactive) with RPMI-8226; 35.7 µM (inactive) in the test on ACHN; 18.9 µM (inactive) with MDA-MB-231. The GI50 in the test with SN12C is 28.2 µM (inactive); with COLO 205, 16 µM (inactive); with Hs-578T it was 13.5 µM (inactive); with HOP-62, 20.1 µM (inactive); with OVCAR-5, 35.2 µM (inactive).

In the case of `Cc1ccc(Nc2c3c(c(C#N)c4nc5ccccc5n24)CCCC3)cc1`, the GI50 in the test with UACC-257 was 17.7 µM (inactive); with UO-31, 12 µM (inactive); in the test on OVCAR-3, 11.1 µM (inactive); with HCT-116, 10.9 µM (inactive); in the test on CAKI-1 it was 25.4 µM (inactive); with IGROV-1, 28.2 µM (inactive). The GI50 was 9.89 µM (inactive) in the test with MCF7; 21.3 µM (inactive) in the test on NCI/ADR-RES; 13 µM (inactive) with SF-295; 21.6 µM (inactive) in the test on ACHN; 22.5 µM (inactive) in the test on MDA-MB-231; 17.4 µM (inactive) in the test with SN12C. In addition, the GI50 is 18.3 µM (inactive) with COLO 205, > 100 µM (inactive) in the test on Hs-578T and 34 µM (inactive) in the test on OVCAR-5.

`COc1cc(OC)cc(OCc2nc3cc(C(F)(F)F)ccc3nc2-c2ccccc2)c1`: the GI50 with UACC-257 was > 100 µM (inactive); in the test on UO-31, > 100 µM (inactive); with OVCAR-3 it was > 100 µM (inactive); with HCT-116, > 100 µM (inactive); in the test on CAKI-1, > 100 µM (inactive); in the test on IGROV-1, 0.809 µM (active). Further, the GI50 with MCF7, in the test with RXF 393, in the test on NCI/ADR-RES, in the test with SF-295, in the test on RPMI-8226 and in the test on ACHN was > 100 µM (inactive) throughout. In addition, the GI50 with MDA-MB-231 is 76.4 µM (inactive); with SN12C, > 100 µM (inactive); in the test on COLO 205 it was > 100 µM (inactive); with Hs-578T, 69.2 µM (inactive); with HOP-62 it was > 100 µM (inactive); in the test with OVCAR-5 it was > 100 µM (inactive).

Consider `CC1(C)CCC[C@](C)([C@H]2CC[C@]3(C)[C@@H]2[C@H](O)C[C@@H]2[C@@]4(C)CC[C@H](O)C(C)(C)[C@@H]4[C@H](O)C[C@]23C)O1`, for which the GI50 in the test with UACC-257 is 13.7 µM (inactive); with UO-31, 11.7 µM (inactive); in the test on HCT-116, 15.9 µM (inactive); with CAKI-1 it was 5.6 µM (inactive); in the test on IGROV-1 it was 17.5 µM (inactive); in the test with MCF7, 9.73 µM (inactive). The GI50 was 12.8 µM (inactive) with A498; 15.2 µM (inactive) with NCI/ADR-RES; 10.5 µM (inactive) in the test with SF-295; 12.1 µM (inactive) in the test with ACHN; 17.3 µM (inactive) with MDA-MB-231; 14.3 µM (inactive) in the test with SN12C. In addition, the GI50 in the test on COLO 205 was 10 µM (inactive); with Hs-578T it was 12.9 µM (inactive); in the test with OVCAR-5, 20.1 µM (inactive).

Turning to `O=S(=O)(CCn1c(Sc2ccccc2)c(Sc2ccccc2)c2ccccc21)c1ccccc1`, the GI50 with UO-31 is > 100 µM (inactive); in the test with OVCAR-3 it was > 100 µM (inactive); in the test on HCT-116 it was > 100 µM (inactive); in the test with CAKI-1 it was 55.8 µM (inactive); in the test with IGROV-1, > 100 µM (inactive); with MCF7, > 100 µM (inactive). The GI50 in the test on A498, with NCI/ADR-RES, with SF-295, in the test on RPMI-8226, in the test with ACHN and with MDA-MB-231 was > 100 µM (inactive) throughout. Further, the GI50 with SN12C was > 100 µM (inactive); in the test on COLO 205, > 100 µM (inactive); in the test with Hs-578T it was 40.5 µM (inactive); in the test with HOP-62 it was > 100 µM (inactive); in the test with OVCAR-5, > 100 µM (inactive).
